“And” between values parts separate entries of the source, which are not always exact repeats. Equal values may be shown once. “Also recorded” adds a separate entry of the source.
Tests used:
[1] = system: human α3β2 nAChR; assay type: cell-based
[2] = molecular target: T1, human α7 nAChR (Homo sapiens, UniProt P36544); assay type: cell-based
T1 construct: expressed in transfected cells; host or cells: Xenopus laevis oocytes injected with cRNA (55.8 ng per oocyte); the cDNA clone was a gift of Dr. J. Michael McIntosh, University of Utah
T1 sequence (P36544 23-502): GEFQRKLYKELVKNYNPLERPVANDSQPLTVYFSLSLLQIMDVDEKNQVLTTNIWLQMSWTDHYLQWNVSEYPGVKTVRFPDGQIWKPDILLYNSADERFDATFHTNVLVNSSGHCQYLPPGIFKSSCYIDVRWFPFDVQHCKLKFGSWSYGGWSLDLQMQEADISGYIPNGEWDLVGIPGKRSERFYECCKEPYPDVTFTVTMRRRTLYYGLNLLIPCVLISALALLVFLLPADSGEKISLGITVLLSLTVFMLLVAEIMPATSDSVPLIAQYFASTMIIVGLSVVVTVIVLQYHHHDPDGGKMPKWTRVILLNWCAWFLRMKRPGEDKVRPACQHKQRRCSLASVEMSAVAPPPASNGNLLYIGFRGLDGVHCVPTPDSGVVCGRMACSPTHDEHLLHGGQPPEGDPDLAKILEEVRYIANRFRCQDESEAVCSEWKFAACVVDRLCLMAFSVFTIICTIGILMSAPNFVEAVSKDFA

Substance: αD-PiXXA [F7-3]
- inhibition of the ACh-induced response on hα3β2 nAChRs by purified peptide [1]: 6.7 ± 3.1%
- effect on hα3β2 nAChRs (in words) ([1]; 6.5 μM): did not significantly affect
- reversibility of the effect of purified peptide on hα7 nAChR (in words) [2]: slowly reversible; also recorded: very slowly reversible
- selectivity hα7 over hα3β2 (in words) [2]: selective for hα7 nAChRs
- time to return to the initial activity after starting the washout, hα7 nAChR [2]: 21 min and ~ 21 min
- IC50 ([2]; read-out: half-maximal inhibitory concentration (IC50) on hα7 nAChRs): 6.2 µM

From PMC6669827 (Toxins, 2019)
